According to patent publication US4971968A, “Pyridazinone derivatives and salts thereof” (Mitsubishi Kasei Corporation, priority 1983, dated 1990):

Key:
papillary muscle of dog = assay: Effect on contraction of an isolated and cross-circulated papillary muscle preparation of the dog; details: Canis lupus familiaris, read-out: Contraction of papillary muscle of dog, increase; for activation at 0.03 mg: 30 μg i.a.; for activation at 0.01 mg: 10 μg i.a.
Method: 1. Effect on contraction of an isolated and cross-circulated papillary muscle preparation of the dog
An isolated and cross-circulated papillary muscle preparation of the dog was prepared by Endo and Hashimoto's method (referred to American Journal of Physiology, 218, 1459-1463, 1970). The effect of the compound was measured by closely intraarterially injecting the compound dissolved in a solvent to the papillary muscle for the purpose of recording its effect on contraction of papillary muscle.

[1] = tested on: left atrium of guinea pig; assay: Effect on contraction of an isolated left atrium of the guinea pig; details: Cavia porcellus, read-out: Contraction of left atrium of guinea pig, increase; for activation at 30 µg/mL: 3 × 10^-5 g/ml; for activation at 10 µg/mL: 10^-5 g/ml
Method: 2. Effect on contraction of an isolated left atrium of the guinea pig
A left atrium was isolated from a male guinea pig with 200-300 g of body weight soon after striking on the back of its head. The mitral orifice was fixed to the bottom of an organ bath filled with 30 ml of Krebs-Henseleit solution maintained at 35° C. A gas mixture comprising 95% of O2 and 5% of CO2 was passed through the Krebs-Henseleit solution in the organ bath. Isometric tension was measured by connecting a left auricle of heart and a transducer by a yarn. A resting tension of 0.5 g was given to the atrium, which was then electrically driven with square pulses with duration of 1 msec and voltage of 1.5 times as much as threshold in the rate of 2 Hz via dipolar platinum electrodes.
After stabilizing the atrium for 30 minutes from its preparation, the compound dissolved in a solvent was added to the organ bath to measure its effect.

[2] = Acute toxicity (LD50) for intravenous and oral administration in male mice; details: mouse, in vivo
Method: Acute toxicity (LD50) for intravenous and oral administration in male mice was determined by the method of […] and Wilcoxon (referred to Journal of Pharmacology and Experimental Therapeutics, 96, 99-113, 1949).

Anesthetized dog = assay: Effects on myocardial contraction in anesthetized dogs; type: in vivo, dog (male and female mongrel dogs); details: for Anesthetized dog, CO (cardiac output) increase: aortic blood flow as index
Method: 3. Effects on myocardial contraction in anesthetized dogs
Male and female mongrel dogs with body weight of 8-15 kg were used. A dog was anesthetized by intraveneous injection of 30 mg/kg of sodium pentobarbital and practiced artificial respiration. The dog was thoractomized between fourth and fifth costa which was cut off. The pericardium was incised to expose heart. Blood flow through the aorta, which was measured with an electromagnetic blood flowmeter whose probe was attached to the ascending aorta, was used as an approximate index of cardiac output (CO). Left ventricular pressure (LVP) was measured with a Miller Catheter-tip pressure transducer and the first derivative of the LVP (dP/dt) was measured with a differentiater. Contraction of right ventricular muscle (Cont) was determined with a strain-gauge attached to the wall. Systemic blood pressure was measured from the left femoral artery. Heart rate was measured with electrocardiogram (lead II) and a cardiotachometer. The compound dissolved in a solvent was administered intravenously from a left femoral vein.

SMILES | activation at 0.03 mg (papillary muscle of dog) | activation at 0.1 mg (papillary muscle of dog; 100 μg i.a.) | activation at 30 µg/mL [1] | activation at 10 µg/mL [1] | LD50 ([2]; iv) | LD50 ([2]; po) | Anesthetized dog, Cont (contraction of right ventricular muscle) increase (Anesthetized dog; 10 μg/kg i.v.) | Anesthetized dog, dP/dt max increase (Anesthetized dog; 10 μg/kg i.v.) | Anesthetized dog, CO (cardiac output) increase (Anesthetized dog; 10 μg/kg i.v.) | Anesthetized dog, Cont (contraction of right ventricular muscle) increase (Anesthetized dog; 30 μg/kg i.v.) | Anesthetized dog, dP/dt max increase (Anesthetized dog; 30 μg/kg i.v.) | Anesthetized dog, CO (cardiac output) increase (Anesthetized dog; 30 μg/kg i.v.) | activation at 0.01 mg (papillary muscle of dog) | Anesthetized dog, Cont (contraction of right ventricular muscle) increase (Anesthetized dog; 100 μg/kg i.v.) | Anesthetized dog, dP/dt max increase (Anesthetized dog; 100 μg/kg i.v.) | Anesthetized dog, CO (cardiac output) increase (Anesthetized dog; 100 μg/kg i.v.) | Anesthetized dog, Cont (contraction of right ventricular muscle) increase (Anesthetized dog; 3 μg/kg i.v.) | Anesthetized dog, dP/dt max increase (Anesthetized dog; 3 μg/kg i.v.) | Anesthetized dog, CO (cardiac output) increase (Anesthetized dog; 3 μg/kg i.v.) | activation at 0.003 mg (papillary muscle of dog; 3 μg i.a.)
O=C1CCC(c2ccc(Nc3ncccn3)cc2)=NN1 [6-[4-(2'-pyrimidinyl)aminophenyl]-4,5-dihydro-3(2H)-pyridazinone] | 5.7% | 15.9% | 66% | 42% |  |  |  |  |  |  |  |  |  |  |  |  |  |  |  | 
O=C1CCC(c2ccc(Nc3ccncc3)cc2)=NN1 [6-[4-(4'-pyridyl)aminophenyl]-4,5-dihydro-3(2H)-pyridazinone] | 15.4% |  | 138% | 115% | 97 mg/kg | 341 mg/kg | 23% | 45% | 13% | 57% | 93% | 28% | 13.2% |  |  |  |  |  |  | 
CC1CC(c2ccc(Nc3ccncc3)cc2)=NNC1=O (stereo not drawn) [6-[4-(4'-pyridyl)aminophenyl]-4-methyl-4,5-dihydro-3(2H)pyridazinone] | 50% |  | 109% | 85.9% |  |  |  |  |  | 21.6% | 29.1% | 8.6% | 22.6% | 64.0% | 64.7% | 26.7% |  |  |  | 
CC1CC(=O)NN=C1c1ccc(Nc2ccncc2)cc1 (stereo not drawn) [6-[4-(4'-pyridyl)aminophenyl]-5-methyl-4,5-dihydro-3(2H)pyridazinone] |  |  | 97.9% | 86.6% |  |  | 75.9% | 73.8% | 26.7% |  |  |  | 38.7% |  |  |  | 13.3% | 14.4% | 14.4% | 28.6%
